Test: Incorporation of fat-soluble drug into white turbid aggregate containing PMEA
Conditions: diluted in PBS, 37° C., fluorescence microscopy after 3 days
Experimental: The dialysis was carried out for 3 days while changing the purified water until the coloring of the external solvent by the elution of DOX was sufficiently removed.
In addition, the white turbid aggregate was diluted in PBS, allowed to stand in an incubator at 37° C., and then the doxorubicin content was confirmed by fluorescence microscopy (after 3 days).

SMILES: COc1cccc2c1C(=O)c1c(O)c3c(c(O)c1C2=O)C[C@@](O)(C(=O)CO)C[C@@H]3O[C@H]1C[C@H](N)[C@H](O)[C@H](C)O1 [doxorubicin]
- doxorubicin content of the aggregate after storage: confirmed
